Results: patent US12721892B2, “Methods and compositions for chimeric antigen receptor targeting cancer cells” (The University of North Carolina at Chapel Hill, priority 2019, dated 2026)
Entries after “also recorded” stand apart in the source; their conditions may differ.

Experiments:
CAR-CD3ζ phosphorylation = assay: Western blot of CAR-CD3ζ and proximal signaling phosphorylation; assay type: cell-based, human
Method: For western blot assays, protein lysate was normalized according to the amount of CAR expression and resolved on 4%-15% SDS polyacrylamide gel electrophoresis gels (SDS-PAGE, Bio-Rad). After protein transfer onto Polyvinylidene fluoride membranes (Bio-Rad), membranes were blocked in 5% non-fat milk in TBS-T and incubated with primary and secondary Abs in TBS-T with 1% milk. The following Abs were used: anti-CD3pY83 and anti-CD3pY142 (Abcam), anti-ZAP70pY319, anti-ZAP70, anti-LATpY191, anti-LAT, anti-LCK, anti-THEMIS, anti-SHP1 and anti-HA tag (Cell Signaling Technology), anti-CD3ζ, anti-FKBP, anti-β-actin (Santa Cruz), anti-FLAG (M2) (Sigma) and horseradish peroxidase conjugated secondary Abs (Goat-anti-mouse, Goat-anti-Rabbit from Thermo Scientific). Membranes were developed with SuperSignal West Femto Maximum Sensitivity Substrate (Thermo Scientific) on a Gel station (Bio-Rad).

Daudi-FFLuc cells = assay: NSG xenograft lymphoma model of SHP1 heterodimerization; assay type: in vivo, NSG mice
Method: Animal studies were performed in accordance with the Institutional Animal Care and Use Committee of UNC. For long-term in vivo cytotoxicity, male or female NSG (NOD-scid IL2Rg^null) mice were injected intravenously (i.v.) with 2×10^6 CD19^+ Daudi tumor cell line labeled with the Firefly luciferase gene (Daudi-FFLuc). Four to seven days later, mice received T cells control or expressing CARs intravenously (i.v.). For tumor re-challenging experiments, 2×10^6 CD19^+ Daudi-FFLuc cells were i.v. injected at indicated time point. Tumor growth was monitored every 2-3 days by injecting mice intraperitoneally (i.p.) with D-luciferin (150 mg/kg, Xenolight, PerkinElmer). Photon emission was analyzed using the Xenogen-IVIS Imaging System. For short-term in vivo T cell activation, NSG mice were injected with Daudi-FFLuc cells i.v. Two weeks later, CAR19.28ζ-Ts were labeled with Cell-trace Violet (Thermo Scientific) and CAR19.BBζ-Ts were labeled with CFSE (Thermo Scientific) as per manufacturer's instructions. Cells were mixed 1:1, and a total 1×10^7 cells were i.v. injected in each mouse. Peripheral blood, bone marrow, lung and spleen were harvested 6 hours after T cell injection, dissociated into single cells and stained with anti-human CD45-PE, CD3-APC and CD69-PE-Cy7 Abs. […] Tumor growth was monitored twice a week.

[1] = Humanized mouse CRS model of SHP1 heterodimerization; assay type: in vivo, humanized NSG mice
Source text: For the humanized mouse model to evaluate the effects of SHP1 heterodimerization in CAR-T cells in vivo, humanized NSG (NOD-scid IL2Rg^null) mice (NSG-hu HSC) were generated. Briefly, human fetal liver tissues were obtained from elective or medically indicated termination of pregnancy through a non-profit intermediary working with outpatient clinics (Advanced Bioscience Resources). CD34^+ hematopoietic stem cells (HSC) were transplanted in newborn NSG mice through intra-liver injection of 2×10^5 purified HSC. Human immune cell engraftment was detected by flow cytometry 12 weeks after transplantation. Standard parameters of evaluation of CRS in humanized NSG mice was performed. Mice were infused with 5×10^6 CAR-T cells at day 0, and plasma was collected at days 1 and 2. AP21967 was administrated intraperitoneally at 10 mg/kg dose. Weight of each mouse was normalized to starting weight before CAR-T cell infusion. In a second CRS murine model, 7-10-week-old female C.B-Igh-1b/GbmsTac-Prkdc^scid-Lyst^bgN7 (SCID-beige, Taconic Biosciences) mice were injected i.p. with Raji-FFluc cells. After 21 days, mice were grouped based on the BLI (total flux). Mice were infused i.p. with 30×10^6 CAR-T cells. Weight of each mouse was normalized to starting weight before CAR-T cell infusion.

[2] = system: CD19+ BV173 tumor cell line; assay: Co-culture / stimulation with CD19+ BV173 tumor cells; assay type: cell-based, human
Method: (§1) For activation of CD19-specific CAR-T cells with the anti-idiotype Ab or CD19^+ tumor cells, anti-CAR19 and anti-CD3 Abs were serially diluted 2-fold, and coated on non-tissue culture treated 96-well plates for 16 hours. Plates were washed twice before plating T cells (2.5×10^5 cells/well). Plates were centrifuged at 1,000 g for 5 min, and incubated at 37° C. for 6 hours. Plates were then briefly spun, and 200 μl of the supernatant was collected for ELISA. Cells were collected and stained with anti-CAR19, CD4-PE, CD69-FITC Abs and Zombie Aqua™ dye (Biolegend) at 4° C. for 30 min. Samples were fixed and stored for flow cytometry analysis. For tumor cell-mediated activation, 5×10^4 BV173 tumor cells were seeded in each well of 96-well plates, and T cells were serially diluted and seeded. Six hours later, supernatant was collected for ELISA.
(§2) Cytokines in culture supernatants and plasma were measured using enzyme-linked immunosorbent assay (ELISA) or magnetic luminex assay following manufacturer's instructions (R&D Systems). Data were collected and analyzed using the Lumina-200 System and the Bio-Plex Manager 6.1 software (Bio-Rad).
For co-culture assays, CD19^+ BV173 tumor cells were seeded into 24-well plates with 5×10^5 cells/well and T cells were added at different effector to target (E:T) ratios (E:T=1:1 or 1:5). After 24 hours, supernatant was collected for ELISA. Three days later, cells were collected and stained with anti-human CD3 and CD19 Abs for flow cytometry analysis.

[3] = system: CD69 expression and cytokine release of CAR-T cells; assay: Activation of CAR-T cells with anti-CAR19 anti-idiotype Ab (CD69 expression, cytokine release); assay type: cell-based, human
Method: as §1, §2

[4] = system: Ca2+ influx in CAR-T cells; assay: Ca2+ influx assay after anti-CAR19 Ab stimulation; assay type: cell-based, human; conditions: stimulated with α-CAR19 antibody; FIG. 6
Method: For Ca^2+ influx assays, T cells were incubated with Ca^2+ indicator as per manufacturer's instructions (Ca^2+ influx assay, BD Bioscience). Cells were incubated with anti-CAR19 Ab followed by goat anti-mouse secondary Ab on ice. Ca^2+ current was measured by flow cytometry for time-lapsed fluorescence change. Cells were first collected on ice as the baseline of the Ca^2+ current, and then activated at 37° C. for the Ca^2+ current during T cell activation.

[5] = transient AP21967, FIGS. 21B-21C

CO[C@H]1[C@@H](O)[C@H](C)C[C@H](C)/C=C/C=C/C=C(\C)[C@@H](c2c[nH]c3c(C)cccc23)C[C@@H]2CC[C@@H](C)[C@@](O)(O2)C(=O)C(=O)N2CCCC[C@H]2C(=O)O[C@H]([C@H](C)C[C@@H]2CC[C@@H](O)[C@H](OC)C2)C[C@H](O)[C@H](C)/C=C(\C)[C@H]1O [AP21967]
CAR-CD3ζ phosphorylation upon antigen binding (CAR-CD3ζ phosphorylation; CAR19.28ζ.FRB-T cells co-transduced with FKBP-SHP1, 1 μM AP21967, FIG. 16): tunes down CAR-CD3ζ phosphorylation upon antigen binding | Antigen-independent CAR-CD3ζ phosphorylation of CAR19.28ζ-Ts (CAR-CD3ζ phosphorylation; FKBP-SHP1 co-expressed, FIG. 16): reduce antigen-independent CAR-CD3ζ phosphorylation | IFNγ release in vivo (plasma) (Daudi-FFLuc cells; AP21967 twice on day 2, 10 mg/kg intraperitoneally, FIG. 20A): reduced IFNγ release by CAR19.28ζ-T cells co-expressing SHP1 | Antitumor effects in vivo (Daudi-FFLuc cells; AP21967 twice on day 2, tumor growth days 7-39, FIG. 20B): without impairing their antitumor effects | Weight loss ([1]; AP21967 twice on day 1, 10 mg/kg intraperitoneally, FIG. 21A): alleviated their weight loss | Therapeutic effect of CAR19.28ζ-T cells in vivo ([1]; cell counts on day 21, FIG. 21D): did not impair the therapeutic effect | Release in the plasma of human GM-CSF [1, 5]: significantly reduced | Release in the plasma of human IFNγ [1, 5]: significantly reduced | Release in the plasma of human IL-6 [1, 5]: significantly reduced | Release in the plasma of human TNFα [1, 5]: significantly reduced | Antitumor activity in vitro ([2]; CAR19.28ζ-T cells with FKBP-SHP1, BV173 co-culture): without compromising their antitumor activity in vitro | IFNγ release / production ([2]; CAR19.28ζ.FRB-T cells with FKBP-SHP1 and BV173 at 1:5 ratio, FIGS. 17 and 18): reduces IFNγ release by CAR19.28ζ-T cells in a reversible manner; also recorded: reversible regulation of IFNγ production | Cytotoxicity ([2]; FKBP-SHP1 co-expressed, FIG. 17): controlled cytotoxicity

[Na+].[Na+].[Na+].[O]=[V]([O-])([O-])[O-] [Na3 VO4]
Antigen-independent phosphorylation of CAR-CD3ζ in CAR19.BBζ-T cells (CAR-CD3ζ phosphorylation; 200 μM phosphatase inhibitor, FIG. 2E): promoted

CC(C)(C)n1nc(-c2ccc(Cl)cc2)c2c(N)ncnc21 [PP2]
Responsiveness of CAR19.28ζ-T cells to CAR crosslinking (CD69, IFNγ and IL-2) after PP2 pretreatment ([3]; 10 μM PP2 for 16 hours, low doses of anti-CAR19 antibody, FIG. 2B): reduced their responsiveness to CAR crosslinking with low doses of anti-CAR19 antibody to similar levels of CAR19.BBζ-T cells | PP2-mediated inhibition in CAR19.28ζ-T cells at high doses of anti-CAR19 antibody ([3]; 10 μM PP2 pretreatment, high doses of anti-CAR19 antibody): partially overcame | CAR-CD3ζ basal phosphorylation of CAR19.28ζ-T cells on addition of kinase inhibitor (CAR-CD3ζ phosphorylation; inhibitor at 10 μM for 16 hours, FIG. 2A): abrogated

CD8α-wt: wild type CD8α
Basal CAR-CD3ζ phosphorylation in CD4+ T cells co-expressing CAR.19.BK (CAR-CD3ζ phosphorylation; co-expression of CD8α construct, FIG. 2D top): increased

LCK: full-length human LCK, FLAG-tagged, overexpressed in CAR-T cells
Ca2+ influx with LCK overexpression [4]: increasing; also recorded: correspondingly increased | CAR-CD3ζ phosphorylation in CAR19.28ζ-Ts with LCK overexpression (CAR-CD3ζ phosphorylation; FIG. 5): enhanced | Basal CAR-CD3ζ phosphorylation in CAR19.BBζ-T cells with LCK overexpression (CAR-CD3ζ phosphorylation; day 10 of in vitro expansion, three donors, FIG. 5): increasing; also recorded: dramatically increased CAR-CD3ζ phosphorylation of CAR19.BBζ to a comparable level as CAR19.28ζ
